Test results taken from PubChem BioAssay (NCI).
Where “and” joins values, the source holds several entries; their conditions need not be identical. Equal entries are not always repeated.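 Values below derive from 48-hour exposures of cells grown in 96-well plates, with endpoints linearly interpolated between the two concentrations bracketing the appropriate inhibition level. At the GI50, growth is halved. TGI: concentration producing complete growth inhibition.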

Tests used:
Test in all cases: growth of human tumour cells (NCI), 48 h
[1] = test system: SF-539 CNS
[2] = test system: HOP-92 NSCLC
[3] = test system: HL-60(TB) leukemia
[4] = test system: T-47D breast
[5] = test system: U251 CNS
[6] = test system: K-562 leukemia

Compound | GI50 [1] [µM] | TGI [1] [µM] | TGI [2] | GI50 [3] [µM] | TGI [3] | TGI [4] [µM] | GI50 [5] [µM] | TGI [5] [µM] | GI50 [6] [µM] | TGI [6] | GI50 [4] [µM] | GI50 [2] [µM]
O=S(=O)(/C=C/C=C/S(=O)(=O)c1ccccc1)c1ccccc1 | 2.14 | 4.43 | 2.77 µM and 3.35 µM | 0.188 | 2.04 µM and 0.518 µM | 2.69 | 2.7 | 11 | 0.179 | 1.26 µM and 0.516 µM | – | –
CC(C)(Cl)CCC1=C(Cl)C(=O)c2ccccc2C1=O | 2.01 | 4.58 | – | 1.33 | 3.84 µM | 5.52 | 2.43 | 8.67 | 1.25 | 10.6 µM | 1.97 | –
C/C(=C\c1ccn(-c2ccc(N)c(C(F)(F)F)c2)n1)[C@@H]1C[C@@H]2O[C@]2(C)CCC[C@H](C)[C@H](O)[C@@H](C)C(=O)C(C)(C)[C@@H](O)CC(=O)O1 | 0.00984 | 0.593 | 23.9 µM | 0.0086 | 0.203 µM | 28.3 | < 0.012 | 8.55 | 0.0109 | > 32.5 µM | 0.0164 | 0.0161
O=C1C2CC3C(CC2C(=O)[N]1[Sn]([c]1ccccc1)([c]1ccccc1)[c]1ccccc1)C1(Cl)C(Cl)=C(Cl)C3(Cl)C1(Cl)Cl (centres undefined) | 0.179 | 0.369 | 0.221 µM | 0.176 | 0.497 µM | 0.22 | 0.119 | 0.252 | 0.0492 | 0.754 µM | 0.0393 | 0.0529
CC(=O)O[C@H](C[C@H](C(C)C)N(C)C(=O)[C@@H](NC(=O)[C@H]1CCCCN1C)C(C)C)c1nc(C(=O)N[C@@H](Cc2ccccc2)C[C@H](C)C(=O)O)c(C)s1 | < 0.0025 | 0.0187 | > 25 µM | – | – | – | < 0.0025 | > 25 | < 0.0025 | > 25 µM | – | > 25
CC(=O)[CH-]C(=O)c1ccccc1.CC(=O)[CH-]C(=O)c1ccccc1.O=C([O-])C[O-].O=C([O-])C[O-].[Ti+4] | 41.8 | > 100 | – | 40 | > 100 µM | – | 32 | > 100 | 71.4 | > 100 µM | – | –
COc1cccc(-c2nn(-c3ccccc3)cc2-c2ccnc(NCCNS(=O)(=O)c3ccc(C(F)(F)F)cc3)c2)c1 | 2.48 | 6.28 | 6.83 µM | 1.97 | 5.63 µM | 7.55 | 3.54 | 13.9 | 2.87 | 19.4 µM | 2.36 | 2.12
O=C1C(=O)c2cc([N+](=O)[O-])ccc2-c2ccccc21 | 1.82 | 3.24 | 3.12 µM | – | – | 3.77 | 1.35 | 2.7 | – | – | 1.76 | 1.66
CCCCCCCCCCCCCOC(=O)c1c(C)[nH]c(/C=C2\N=C(c3ccc[nH]3)C=C2OC)c1C | 0.182 | > 26.9 | 0.497 µM | 0.0182 | – | > 43.4 | 0.0764 | 17.7 | 0.0392 | > 100 µM | 0.0583 | 0.0698
Nc1nc(N)c2nc(CNc3ccc(C(=O)CC(CCC(=O)O)C(=O)O)cc3)cnc2n1 (centres undefined) | 0.176 | > 100 | > 100 µM | < 0.018 | > 100 µM | > 100 | 0.215 | > 100 | 0.0406 | > 100 µM | > 100 | > 100
O=C(O)C1C2C=CC(O2)C1C(=O)Nc1ccccc1 (centres undefined) | – | – | – | – | – | > 100 | – | > 100 | – | > 100 µM | – | –
C=C1C(=O)O[C@@H]2[C@H]1CC[C@H](C)[C@]1(O)CCC(=O)[C@@]21C | – | > 10 | > 10 µM | – | > 10 µM | > 10 | – | > 10 | – | > 10 µM | – | –
CCN1C(=O)N(CC)C2C1NN=c1s/c(=C3\C(=O)N(CCC(C)C)c4ccccc43)c(=O)n12 (centres undefined) | 1.11 | 2.42 | 5.83 µM | 2.12 | 4.5 µM | – | 1.88 | 9.81 | 0.586 | > 100 µM | – | 1.47
CC1(C)SC2C(C(=O)O)N=C(Cc3ccccc3)N2C1C(=O)O (centres undefined) | – | 57.3 | > 100 µM | – | – | 73.7 | – | > 100 | – | > 100 µM | – | –
O=c1ncc(-c2ccc(C(F)(F)F)cc2)c(NC2CCCCCC2)[nH]1 | 15.2 | 30.1 | – | 21 | 46.4 µM | 57.8 | – | – | 24.2 | 60.1 µM | 17.2 | –
Cc1ccc(-c2csc(N(C(=O)N3CCN(c4cc5c(cc4F)c(=O)c(C(=O)O)cn5C4CC4)CC3)c3ccccc3)n2)cc1 | – | – | 0.798 µM | – | – | > 100 | 0.368 | 6.73 | 0.269 | > 100 µM | 0.381 | 0.213
COc1cc2[nH]c(C(=O)c3cc(OC)c(OC)c(OC)c3)c(N)c2cc1C#CCO | 0.138 | 0.491 | 90.7 µM | 0.313 | 0.956 µM | – | 0.431 | > 100 | 0.347 | > 100 µM | – | 0.0862
Cc1cc(Cl)ccc1Nc1sc(C(=O)c2cc3cc(Cl)ccc3o2)c(N)c1C#N | – | > 66 | > 100 µM | – | > 100 µM | > 100 | – | 16.2 | – | > 100 µM | – | –
CN1CCN(C(=O)c2ccc(NC(=O)Nc3ccc(N(C)c4ccnc(Nc5ccc(CS(C)(=O)=O)cc5)n4)cc3)cc2)CC1 | 11.2 | > 25 | > 25 µM | > 19.4 | > 25 µM | 19.7 | 6.26 | > 25 | 12.6 | > 25 µM | 4.68 | > 25
Cc1cc(N(CCOS(C)(=O)=O)CCOS(C)(=O)=O)ccc1C=Nc1ccc(-c2csc(-c3ccccc3)n2)c(Cl)c1 | – | 16.8 | 27.6 µM | – | 19.8 µM | > 85.2 | – | > 64.8 | – | 51 µM | – | –
CS(=O)(=O)CCNCc1ccc(-c2ccc3ncnc(Nc4ccc(OCc5ccccc5)c(C(F)(F)F)c4)c3c2)o1 | 4.69 | 9.88 | 20.8 µM | 5.65 | 13.3 µM | 18.9 | 4.49 | 8.92 | 6.83 | 18.2 µM | 6.76 | 4.9
